From patent publication US20020016341A1, “Heterocyclic thioester and ketone hair growth compositions and uses” (priority 1998, published 2002) come the findings set out here.

In one assay the target is FKBP12 (Homo sapiens, UniProt P62942). Put plainly: Ki test: inhibition of peptidyl-prolyl isomerase (rotamase) activity, chymotrypsin-coupled assay. It is filed as biochemical.
Chain of FKBP12 (P62942 whole entry, species assumed): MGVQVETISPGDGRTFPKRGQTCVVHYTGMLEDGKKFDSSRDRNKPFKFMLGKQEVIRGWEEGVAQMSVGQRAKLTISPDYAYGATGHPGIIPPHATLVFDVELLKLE
Conditions: not given
An excerpt:
The inhibition of the prolyl peptidyl cis-trans isomerase activity of FKBP may be measured as an indicator of this affinity.
Inhibition of the peptidyl-prolyl isomerase (rotamase) activity of the compounds used in the inventive methods and pharmaceutical compositions can be evaluated by known methods described in the literature (Harding et al., Nature, 1989, 341:758-760; Holt et al. J. Am. Chem. Soc., 115:9923-9938).
The cis-trans isomerization of an alanine-proline bond in a model substrate, N-succinyl-Ala-Ala-Pro-Phe-p-nitroanilide, is monitored spectrophotometrically in a chymotrypsin-coupled assay, which releases paranitroanilide from the trans form of the substrate. The inhibition of this reaction caused by the addition of different concentrations of inhibitor is determined, and the data is analyzed as a change in first-order rate constant as a function of inhibitor concentration to yield the apparent K1 values.
In a plastic cuvette are added […] of ice cold assay buffer (25 mM HEPES, pH 7.8, 100 mM NaCl), 10 mL of FKBP (2.5 mM in 10 mM Tris-Cl pH 7.5, 100 mM NaCl, 1 mM dithiothreitol), 25 mL of chymotrypsin (50 mg/ml in 1 mM HCl) and […] of test compound at various concentrations in dimethyl sulfoxide. The reaction is initiated by the addition of 5 mL of substrate (succinyl-Ala-Phe-Pro-Phe-para-nitroanilide, 5 mg/mL in 2.35 mM LiCl in trifluoroethanol).
The absorbance at 390 nm versus time is monitored for 90 seconds using a spectrophotometer and the rate constants are determined from the absorbance versus time data files.
In turn, `O=C(C(=O)N1CCCCC1C(=O)CCCCCc1ccccc1)C1CCCCC1` (centres unmarked) [Compound 68] returned a Ki of 284 nM.

As for `CC(C)(C)C(=O)C(=O)N1CCCCC1C(=O)C(CCc1ccccc1)CCc1ccccc1` (centres unmarked) [Compound 69], the Ki was found to be 49 nM.

Still in this assay, the particulars now being: apparent Ki, rotamase inhibition; read-out: Ki.
In the case of “1,5-Diphenyl-3-pentyl 1-(3,3-dimethyl-1,2-dioxopentyl)-2-piperidinecarbothioate [Compound 40]”, the Ki is 1230 nM.

For the compound “2,2-Diphenylethyl (2S)-1-(3,3-dimethyl-2-oxopentanoyl)-2-piperidinecarbothioate [Compound 49]”, the Ki turned out to be 1330 nM.

In the case of “2-Phenyl-1-ethyl 1-(2-phenyl-1,2-dioxoethyl)-2-piperidinecarbothioate [Compound 14]”, the Ki was 313 nM.

For “2-Phenyl-1-ethyl 1-(3,3-dimethyl-1,2-dioxopentyl)-2-piperidinecarbothioate [Compound 10]”, the Ki turned out to be 12 nM.

Turning to “2-Phenyl-1-ethyl (2S)-1-(1-cyclopentyl-1,2-dioxoethyl)-2-pyrrolidinecarbothioate [Compound 28]”, the Ki was found to be 108 nM.

As for “2-Phenyl-1-ethyl (2S)-1-(2-cyclohexyl-1,2-dioxoethyl)-2-pyrrolidinecarbothioate [Compound 12]”, the Ki is 442 nM.

With “3-(1-Naphthyl)-1-propyl 1-(3,3-dimethyl-1,2-dioxopentyl)piperidine-2-carbothioate [Compound 44]”, the Ki was 188 nM.

For “3-(1-Naphthyl)propyl (2S)-1-(3,3-dimethyl-2-oxopentanoyl)-2-pyrrolidinecarbothioate [Compound 47]”, the Ki was determined as 21 nM.

On to “3-(2-Chlorophenyl)propyl (2S)-1-(3,3-dimethyl-2-oxopentanoyl)-2-pyrrolidinecarbothioate [Compound 61]”, for which the Ki is 139 nM.

For the compound “3-(2-Fluorophenyl)propyl (2S)-1-(3,3-dimethyl-2-oxopentanoyl)-2-pyrrolidinecarbothioate [Compound 57]”, the Ki was 57 nM.

Take “3-(3-Chlorophenyl)propyl (2S)-1-(3,3-dimethyl-2-oxopentanoyl)-2-pyrrolidinecarbothioate [Compound 54]”: the Ki was determined as 37 nM.

On to “3-(3-Fluorophenyl)propyl 1-(3,3-dimethyl-2-oxopentanoyl)-2-piperidinecarbothioate [Compound 64]”, for which the Ki turned out to be 163 nM.

In the case of “3-(3-Fluorophenyl)propyl (2S)-1-(3,3-dimethyl-2-oxopentanoyl)-2-pyrrolidinecarbothioate [Compound 58]”, the Ki was determined as 79 nM.

On to “3-(3-Pyridyl)-1-propyl (2S)-1-(2-cyclohexyl-1,2-dioxoethyl)-2-pyrrolidinecarbothioate [Compound 35]”, for which the Ki was determined as 62 nM.

“3-(para-Methoxyphenyl)-1-propyl 1-(2-phenyl-1,2-dioxoethyl)piperidine-2-carbothioate [Compound 43]”: the Ki was 259 nM.

Take “3-Phenyl-1-propyl 1-(3,3-dimethyl-1,2-dioxobutyl)-2-piperidinecarbothioate [Compound 29]”: the Ki amounted to 59 nM.

As for “3-Phenyl-1-propyl (2S)-1-(2-cyclohexyl-1,2-dioxoethyl)-2-pyrrolidinecarbothioate [Compound 32]”, the Ki came to 362 nM.

Regarding “3-Phenylpropyl 1-(3,3-dimethyl-2-oxopentanoyl)-2-piperidinecarbothioate [Compound 60]”, the Ki is 90 nM.

Regarding “4,4-Di(para-fluorophenyl)butyl 1-(3,3-dimethyl-2-oxopentanoyl)-2-pyrrolidinecarbothioate [Compound 46]”, the Ki worked out at 757 nM.

On to “4-Phenyl-1-butyl 1-(1,2-dioxo-3,3-dimethylbutyl)-2-piperidinecarbothioate [Compound 39]”, for which the Ki stood at 347 nM.

Regarding “4-Phenyl-1-butyl (2S)-1-(2-cyclohexyl-1,2-dioxoethyl)-2-pyrrolidinecarbothioate [Compound 33]”, the Ki came out at 1700 nM.

In the case of “4-Phenyl-1-butyl (2S)-1-(3,3-dimethyl-1,2-dioxopentyl)-2-pyrrolidinecarbothioate [Compound 34]”, the Ki is 34 nM.

As to “4-Phenylbutyl 1-(3,3-dimethyl-2-oxopentanoyl)-2-piperidinecarbothioate [Compound 59]”, the Ki came out at 962 nM.

Take `CCC(C)(C)C(=O)C(=O)N1CCC[C@H]1C(=O)CCCCc1ccccc1` [Compound 1]: the Ki worked out at 31 nM.

On to `CCC(C)(C)C(=O)C(=O)N1CCC[C@H]1C(=O)SCc1csc2ccccc12` [Compound 11, (3-Thioindolyl)methyl (2S)-1-(3,3-dimethyl-1,2-dioxopentyl)-2-pyrrolidinecarbothioate], for which the Ki came out at 299 nM.

Turning to `CCC(C)(C)C(=O)C(=O)N1CCC[C@H]1C(=O)SCCC(c1ccc(F)cc1)c1ccc(F)cc1` [Compound 45, 3,3-Di(para-fluoro)phenyl-1-propyl (2S)-1-(3,3-dimethyl-1,2-dioxopentyl)-2-pyrrolidinecarbothioate], the Ki amounted to 31 nM.

For `CCC(C)(C)C(=O)C(=O)N1CCCCC1C(=O)SCCCc1ccc2ccccc2c1` [Compound 53, 3-(2-Naphthyl)propyl (2R,S)-1-(3,3-dimethyl-2-oxopentanoyl)-2-piperidinecarbothioate], the Ki amounted to 261 nM.

On to `CCC(C)(C)C(=O)C(=O)N1CCC[C@H]1C(=O)CCCC(c1ccc(F)cc1)c1ccc(F)cc1` [Compound 70, 1-{(2S)-2-[5,5-di(4-Fluorophenyl)pentanoyl]-2-pyrrolidine}-3,3-dimethyl-1,2-pentanedione], for which the Ki was 457 nM.

A further assay deals with C57 black 6 mice. Put plainly: In vivo hair generation test, Experiment B. As to conditions: one micromole per milliliter topical, three times per week, 14 days after initiation of treatment. On the procedure: Care was taken not to nick or cause abrasion to the underlying dermal layers. The animals were in anagen growth phase when shaved. […] The animals were treated three times per week, and hair growth was evaluated 14 days after initiation of treatment.
On to `CCC(C)(C)C(=O)C(=O)N1CCC[C@H]1C(=O)SCCC(c1ccccc1)c1ccccc1` [GPI 1234], for which the “hair growth (relative hair growth index, FIG. 5)” value is “dramatic hair growth”.

Another assay concerns C57 black 6 mice. Nature of the assay: In vivo hair generation test, Experiment A. Particulars: 30 μM topical, 3 applications over 5 days, after six weeks. An excerpt: Care was taken not to nick or cause abrasion to the underlaying dermal layers. The animals were in anagen growth phase, as indicated by the pinkish color of the skin. […] Hair growth was quantitated by the percent of shaved area covered by new hair growth during this time period.
`CCC(C)(C)C(=O)C(=O)N1CCC[C@H]1C(=O)OCCCc1cccnc1` [GPI 1046, 3-(3-pyridyl)-1-propyl (2s)-1-(3,3-dimethyl-1,2-dioxopentyl)-2-pyrrolidinecarboxylate]: the “hair regrowth in shaved area” value is given as “essentially complete hair regrowth”.
